From article PMC10704857 (Journal of medicinal chemistry, 2021)

Assays:
[1] = molecular target: RTA depurination of yeast ribosomes (Ricinus communis, UniProt P02879); type: biochemical
[2] = tested on: Stx2a holotoxin in Vero cells; type: cell-based
cisplatin toxicity = type: cell-based

SMILES	fold improved IC50 relative to CC10501 [1] [fold]	inhibition of depurination by Stx2a [2]	effect on toxicity of cisplatin (cisplatin toxicity)	protection of yeast ribosomes from depurination [1]
Cc1ccccc1-c1ccc(C(=O)O)s1 [RU-NT-70, 5-(o-Tolyl)thiophene-2-carboxylic Acid]	10	–	–	–
Cc1cccc(C)c1-c1ccc(C(=O)O)s1 [RU-NT-93, 5-(2,6-Dimethylphenyl)thiophene-2-carboxylic Acid]	–	did not protect	did not alter	–
CCc1ccccc1-c1ccc(C(=O)O)s1 [RU-NT-102, 5-(2-Ethylphenyl)thiophene-2-carboxylic Acid]	12	did not protect	did not alter	–
O=C(O)c1ccc(-c2cccc3c2OCC3)s1 [RU-NT-105, 5-(2,3-Dihydrobenzofuran-7-yl)thiophene-2-carboxylic Acid]	–	–	–	not active
